Measurements: PubChem BioAssay AID2060623 (Molecular Pharmacology Branch, DTP, NCI, 2025)
Several values for one entry are separate records, joined by “and”; a condition that tells them apart may be missing. Identical values can stand only once.

Tested on: 227483-062-R1-J1-PDC complex spheroids with HUVEC/MSC, viability
Assay: Anticancer human tumor 227483-062-R1-J1-PDC patient-derived pancreatic carcinoma cell line growth inhibition [CLK]
Settings: for viability, T/C: stronger effect = lower value
Text: A high-throughput screen of multi-cell type tumor spheroids was designed to identify active combinations of […] and targeted small molecules. Complex spheroids include a stromal component modeled by human endothelial cells (HUVEC) and fibroblasts modeled by human mesenchymal stem cells (MSCs). The concentration ranges selected for each drug and investigational agent were based upon clinically achievable concentrations if the clinical Cmax of the agent was known.
Compounds. The drugs and investigational agents: cirtuvivint (SM08502; NSC835563), CC-671 (NSC850746), vemurafenib (NSC761431), tapotoclax (NSC804041), sotorasib (NSC818433), adagrasib (NSC831453), MRTX-1133 (NSC836407), BAY2416964 (NSC825713), copanlisib (NSC816437), inavolisib (NSC800729), abemaciclib (NSC768073), osimertinib (NSC779217), entinostat (NSC756642), eltanexor (KPT-8602, NSC794443), venetoclax (NSC766270), ceralasertib (NSC777638), bortezomib (NSC756655), olaparib (NSC753686), talazoparib (NSC767125), alisertib (NSC759677), peposertib (NSC802822), gemcitabine (NSC613327), 5-fluorouracil (NSC19893), SN-38 (NSC673596), oxaliplatin (NSC266046), paclitaxel (NSC125973), and doxorubicin (NSC123127), were obtained from the National Cancer Institute (NCI) Developmental Therapeutics Program Chemical Repository. The FDA-approved anticancer drug set is available from the Developmental Therapeutics Program at https://dtp.cancer.gov/organization/dscb/obtaining/available plates.htm. […] The stock solutions were prepared in dimethyl sulfoxide (DMSO, Sigma-Aldrich, St. Louis, MO, cat. D2650), except for the platinum complexes which were prepared in saline (Quality Biological, Gaithersburg, MD, cat. 114-055-101), at 800-fold the tested concentration and stored at -70 degrees C prior to their use. All drugs and investigational agents were tested over a range starting from a high concentration at or near the clinical Cmax and decreasing in half-log increments. If the clinical Cmax for an agent had not been determined, the highest concentration tested was 10 microM.
Cell Culture. All cells were maintained in an incubator at 37 degrees C and 5% CO2 with 95% humidity. The PDC lines were cultured according to standard operating procedures established by the NCI PDMR. Briefly, all PDCs were thawed and cultured in Matrigel-coated flasks prepared with a working solution of 1X Ham's F-12 nutrient mix, without supplementation (Invitrogen, Waltham, MA, cat. 11765054), 100 U/mL penicillin-streptomycin (Invitrogen, cat. 15140122), and 2.5% Matrigel (Corning Inc., Corning, NY, cat. 354248) for the first three passages. The 947758-054-R-J2-PDC line was cultured in 6B/Colon 1A media, which includes advanced DMEM/F-12 (Thermo Fisher Scientific, cat. 12634028), 10 mM HEPES (Thermo Fisher Scientific, cat. 15630080), 1X GlutaMAX supplement (Thermo Fisher Scientific, cat. 35050061), 0.1 mg/mL primocin (InvivoGen, cat. ant-pm-2), 10% defined fetal bovine serum, heat inactivated (HyClone Laboratories Inc., cat. SH30070.03HI), 1.25 mM N-Acetyl-L-cysteine (Sigma-Aldrich, cat. A9165), 10 mM nicotinamide (Sigma-Aldrich, cat. N0636), 1X B-27 supplement (Thermo Fisher Scientific, cat. 17504044), 1X N-2 supplement (Thermo Fisher Scientific, cat. 17502048), and 10 microM Y-27632 dihydrochloride (Tocris Bioscience, cat. 1254). The 876862-298-R-J1-PDC was cultured in 6E media, which includes all 6B/Colon 1A media components plus 50% L-WRN conditioned media (ATCC, cat. CRL-3276), 50 ng/mL recombinant human EGF recombinant protein (hEGF; Thermo Fisher Scientific, cat. PHG0311), 10 ng/mL recombinant human fibroblast growth factor 10 (hGFG-10; PeproTech, cat. 100-26), 1 ng/mL recombinant human fibroblast growth factor 2 (hFGF-2; PeproTech, cat. 100-18B), and 1 µM prostaglandin E2 (PGE2; Tocris, cat. 2296). The 227483-062-R1-J1-PDC line was cultured in Panc media, containing all 6E components except hFGF-2, with the addition of 500 nM SB-431542 (Selleckchem, cat. S1067) and 10 nM gastrin (Tocris, cat. 3006). […]
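Note: spheroids exposed to compounds for seven days before readout.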
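Throughout, for viability, T/C: percent of DMSO vehicle control luminescence as 100% viability.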

Compound | viability, T/C (compound 0.0316 µM) | viability, T/C (compound 0.1 µM) | viability, T/C (compound 0.316 µM) | viability, T/C (compound 1 µM) | viability, T/C (compound 3.16 µM) | viability, T/C (compound 10 µM) | IC50 (curve of compound) | other results
C#Cc1c(F)ccc2cc(O)cc(-c3ncc4c(N5CC6CCC(C5)N6)nc(OCC56CCCN5CC(F)C6)nc4c3F)c12 (stereo not drawn) | 102% and 90.9% | 93.7% and 102% | 120% and 105% | 130% and 104% | 106% and 124% | 98.6% and 78.4% | > 10 µM | 
C=C(F)C(=O)N1CCN(c2nc(OCC3CCCN3C)nc3c2CCN(c2cccc4cccc(Cl)c24)C3)CC1CC#N (stereo not drawn) | 107% and 89.9% | 108% and 97.9% | 109% and 91.9% | 113% and 122% | 86.3% and 89% | 19% and 28% | 5.88 µM and 6.6 µM | 
C=CC(=O)N1CCN(c2nc(=O)n(-c3c(C)ccnc3C(C)C)c3nc(-c4c(O)cccc4F)c(F)cc23)C(C)C1 (stereo not drawn) | 88.6% and 88% | 83.2% and 92.8% | 86% and 85.4% | 95.2% and 125% | 110% and 104% | 109% and 95.8% | > 10 µM | 
C=CC(=O)Nc1cc(Nc2nccc(-c3cn(C)c4ccccc34)n2)c(OC)cc1N(C)CCN(C)C |  |  |  |  |  |  | > 0.3 µM | viability, T/C (compound 0.000949 µM): 99.8% and 83%; viability, T/C (compound 0.003 µM): 104% and 92.1%; viability, T/C (compound 0.00949 µM): 103% and 119%; viability, T/C (compound 0.03 µM): 113% and 109%; viability, T/C (compound 0.0949 µM): 95.1% and 102%; viability, T/C (compound 0.3 µM): 84.3% and 81.2%
CC(C)CC(NC(=O)C(Cc1ccccc1)NC(=O)c1cnccn1)B(O)O (stereo not drawn) |  |  |  |  |  |  | 0.00157 µM and 0.0015 µM | viability, T/C (compound 0.000949 µM): 86.6% and 81.9%; viability, T/C (compound 0.003 µM): 2.59% and 1.33%; viability, T/C (compound 0.00949 µM): 0.56% and 0.57%; viability, T/C (compound 0.03 µM): 2.03% and 0.48%; viability, T/C (compound 0.0949 µM): 0.64% and 0.38%; viability, T/C (compound 0.3 µM): 0.96% and 0.35%
CC(CO)NC(=O)c1cc(-c2ccc(Cl)cc2)nn(-c2cnn(C)c2)c1=O (stereo not drawn) | 100% and 88.3% | 106% and 97.9% | 95% and 100% | 113% and 88.8% | 88.7% and 108% | 90.4% and 87% | > 10 µM | 
CC(Nc1ccc2c(c1)OCCn1cc(N3C(=O)OCC3C(F)F)nc1-2)C(N)=O (stereo not drawn) | 89.1% and 95.7% | 104% and 89.6% | 82.3% and 76.5% | 82.4% and 85.9% | 69.8% and 72.3% | 82.9% and 69.1% | > 10 µM | 
CC1(C)CCC(CN2CCN(c3ccc(C(=O)NS(=O)(=O)c4ccc(NCC5CCOCC5)c([N+](=O)[O-])c4)c(Oc4cnc5[nH]ccc5c4)c3)CC2)=C(c2ccc(Cl)cc2)C1 | 92.4% and 103% | 112% and 85.4% | 95.4% and 94.4% | 107% and 104% | 106% and 112% | 13.2% and 9.57% | 6.22 µM and 5.97 µM | 
CC1COCCN1c1cc(C2(S(C)(=N)=O)CC2)nc(-c2ccnc3[nH]ccc23)n1 (stereo not drawn) | 98% and 93.4% | 93.6% and 101% | 89.4% and 103% | 110% and 109% | 86.9% and 78.7% | 62.2% and 53.5% | > 10 µM | 
CCCS(=O)(=O)Nc1ccc(F)c(C(=O)c2c[nH]c3ncc(-c4ccc(Cl)cc4)cc23)c1F | 101% and 92.4% | 128% and 96.7% | 106% and 92.3% | 125% and 99% | 129% and 98.8% | 107% and 80.7% | > 10 µM | 
CCN1CCN(Cc2ccc(Nc3ncc(F)c(-c4cc(F)c5nc(C)n(C(C)C)c5c4)n3)nc2)CC1 | 92.8% and 79.4% | 98.2% and 76.2% | 95.1% and 73.4% | 88.3% and 82% |  |  | > 1 µM | viability, T/C (compound 0.00316 µM): 93.6% and 83.6%; viability, T/C (compound 0.01 µM): 110% and 94.8%
CCc1c2c(nc3ccc(O)cc13)-c1cc3c(c(=O)n1C2)COC(=O)[C@]3(O)CC | 79.4% and 58.8% | 55.3% and 49% | 54.1% and 53% | 36.8% and 33.1% |  |  | 0.207 µM and 0.0717 µM | viability, T/C (compound 0.00316 µM): 77.7% and 88.3%; viability, T/C (compound 0.01 µM): 94.4% and 86.2%
CN1CCN(c2cc(C(=O)Nc3cc4cc(-c5cnn(C)c5)ccc4cn3)ccn2)CC1 | 95.7% [middle of 12 runs] | 62.8% [middle of 12 runs] | 5.79% [middle of 12 runs] | 1.97% [middle of 12 runs] | 3.33% [middle of 12 runs] | 2.87% [middle of 12 runs] |  | IC50 (compound alone, run of 09/18/2023): 129 nM [middle of 11 runs]
CNC(=O)c1ccc(Nc2nc(OC3CCCC3)c3c(-c4ccc5nc(C)oc5c4)c[nH]c3n2)c(OC)c1 | 96.1% [middle of 12 runs] | 88.2% [middle of 12 runs] | 85.1% [middle of 12 runs] | 61.6% [middle of 11 runs] | 45.4% [middle of 12 runs] | 42.9% [middle of 12 runs] |  | 
COC1C=CCC(C)C(C)S(=O)(=O)NC(=O)c2ccc3c(c2)N(CC2CCC21)CC1(CCCc2cc(Cl)ccc21)CO3 (stereo not drawn) | 93.6% and 86.3% | 93.9% and 81.1% | 95.4% and 95.6% | 106% and 91.1% | 97.3% and 83.1% | 25.9% and 22.8% | 6.77 µM and 5.96 µM | 
COc1c(OCCCN2CCOCC2)ccc2c3n(c(=NC(=O)c4cnc(N)nc4)nc12)CCN3 | 85% and 72.6% | 56.2% and 75.9% | 55.8% and 59.5% | 45.3% and 40.5% |  |  | > 1 µM and 0.575 µM | viability, T/C (compound 0.00316 µM): 92.4% and 100%; viability, T/C (compound 0.01 µM): 90.7% and 83.8%
Cn1ncnc1[C@H]1c2n[nH]c(=O)c3cc(F)cc(c23)N[C@@H]1c1ccc(F)cc1 | 110% and 101% | 104% and 98% |  |  |  |  | > 0.1 µM | viability, T/C (compound 0.000316 µM): 93.6% and 98%; viability, T/C (compound 0.001 µM): 127% and 115%; viability, T/C (compound 0.00316 µM): 91.9% and 102%; viability, T/C (compound 0.01 µM): 120% and 97%
NC(=O)C(=Cn1cnc(-c2cc(C(F)(F)F)cc(C(F)(F)F)c2)n1)c1cncnc1 |  |  |  |  |  |  | 0.911 µM and 0.313 µM | viability, T/C (compound 0.00949 µM): 78.8% and 82.5%; viability, T/C (compound 0.03 µM): 85.2% and 85.8%; viability, T/C (compound 0.0949 µM): 83.2% and 62.7%; viability, T/C (compound 0.3 µM): 87.1% and 54.1%; viability, T/C (compound 0.949 µM): 48.8% and 28%; viability, T/C (compound 3 µM): 15% and 10.8%
Nc1ccccc1NC(=O)c1ccc(CNC(=O)OCc2cccnc2)cc1 | 102% and 79.6% | 107% and 81.1% | 116% and 94.4% | 121% and 101% | 135% and 104% | 87.6% and 71.5% | > 10 µM | 
Nc1ccn(C2OC(CO)C(O)C2(F)F)c(=O)n1 (stereo not drawn) | 83.5% and 62.6% | 43.6% and 29.8% | 33.7% and 28.5% | 37.7% and 30.3% | 35.4% and 25.7% | 23.9% and 20.4% | 0.0839 µM and 0.0495 µM | 
O=C(c1cc(Cc2n[nH]c(=O)c3ccccc23)ccc1F)N1CCN(C(=O)C2CC2)CC1 | 98% and 94.5% | 100% and 97.8% | 101% and 98.4% | 107% and 99.2% | 114% and 91.3% | 91.4% and 100% | > 10 µM | 
O=c1[nH]cc(F)c(=O)[nH]1 | 103% and 83.9% | 94.2% and 84.8% | 97% and 96.9% | 57% | 44.8% and 48% | 35.4% and 35.5% | 1.65 µM and 1.7 µM | 
